Results on 1 molecule are retold here after patent US20080262014A1, “Use of Camptothecin Derivatives for the Treatment of Proliferative Diseases in a Fixed Dosing Regimen” (priority 2004, published 2008).

Data set [1] can be described thus: Clinical pharmacokinetics (disposition) of oral gimatecan in phase I patients with refractory malignancies. Type of data set: in vivo. How it is done:
The disposition of oral gimatecan is evaluated in patients with refractory malignancies administered on a daily schedule for 5, 10, or 15 consecutive days or a weekly schedule for 3 weeks of a 28 day cycle. The disposition of gimatecan using these four schedules are depicted in FIGS. 3 (a-d). Clinical pharmacokinetics is assessed on the first and last days of the first cycle of daily dosing. […] However, patients were dosed based on their body surface area. Patients who responded to gimatecan had taken 0.45 mg, 0.9 mg, 1.1 mg or 1.6 mg which made it difficult to pick an effective dose.

A short description of data set [2]: clinical. Also noted: species or system patients. The following applies: human, in vivo. An excerpt: The optimal dose and schedule of gimatecan stems mainly from the putative therapeutic window identified from the PK/PD analysis of completed phase I data. The target range of cumulative gimatecan cycle exposure (AUC 5,000-10,000 (ng)(hr)/mL) was selected because it produces partial responses and yet is below the exposure where grade III/IV neutropenia and thrombocytopenia adverse events became evident (FIG. 1). […] This may explain why toxicity could not be differentiated among the three schedules; all three schedules exceeded the putative effective daily exposure and were in a potentially toxic range. […] The flat dose is dosed every third day, or once every three days, or every 72 hours, or at one half-life to avoid potential accumulation. The starting doses are chosen to target a systemic exposure of 200-400 (ng)(hr)/mL (the “therapeutic window”) once every three days.

Structures are written as SMILES. Entries after “also recorded” stand apart in the source; their conditions may differ.

What is called half-life is the time in which the quantity being followed falls by half. A word on the AUC: it is concentration integrated over time. Low readings indicate low exposure, high ones high exposure. As to `CC[C@@]1(O)C(=O)OCc2c1cc1n(c2=O)Cc2c-1nc1ccccc1c2/C=N/OC(C)(C)C` [gimatecan, 7-(t-butoxy)imino methyl camptothecin], the “body surface area as predictor of gimatecan clearance” value in data set [1] (78 patients receiving four schedules) is “lack of correlation; also recorded: not a good predictor; also recorded: not predicted by body surface area”. In addition, the half-life in data set [1] (human, in vivo, oral, estimated from 10 patients receiving the weekly schedule, read-out: terminal harmonic mean half-life (converted)) is 86 h. The “apparent oral clearance, dependence on dose” value in data set [1] (oral, four schedules) was “independent of dose”. For the same molecule, the drug accumulation result in data set [1] (weekly and daily schedule) is on record as “Drug accumulation is observed”. For the same molecule, the AUC at 1 day in data set [2] lay in the range of 200 to 400 ng·h/mL. Moreover, in data set [2] (iv), the AUC at 1 cycle lay in the range of 5000 to 10000 ng·h/mL.
